US20050049309A1, “Regulation of HIF protein levels via deubiquitination pathway” (priority 2003, published 2005)
Where a SMILES comes first, the peptide text is derived from it. [ ]: non-standard residue; d: D form. The star is where a group is joined. Nva = CCC[C@H](N)C(=O)O; Cbz = O=C(OCc1ccccc1)*

Legend:
[1] = system: HIF-1α protein; settings: recent studies (literature); cited from earlier work
[2] = system: hypoxic cells; settings: cited from earlier work
[3] = cited from earlier work
[4] = system: HIF-1α; format: cell-based, human
[5] = system: deubiquitinase enzyme activity (HT-29 cell lysate) on polyubiquitinated HIF-1α; format: biochemical, human

Q: For `C=CCNC1=C2C[C@@H](C)C[C@H](OC)[C@H](O)[C@@H](C)/C=C(\C)[C@H](OC(N)=O)[C@@H](OC)/C=C\C=C(/C)C(=O)NC(=CC1=O)C2=O` [17-AAG, 17-allylamino-17-desmethoxygeldanamycin], which “HIF-1α protein in cell-lines lacking pVHL” value [1] is on record?
A: promote the loss of HIF-1α protein

Q: For `O=C(O)CCCc1ccc(N(CCCl)OCCCl)cc1` [CHL-HD], which “Toxicity with reducing enzymes under hypoxia” value [2] is on record?
A: greater toxicity

Q: What about the In vivo toxicity [3] of the same compound?
A: minimal in vivo toxicity

Q: For `C[C@@H]1C[C@@H]([C@H](O)CC2CC(=O)NC(=O)C2)C(=O)[C@@H](C)C1` [Cycloheximide, cycloheximide], which “Ubiquitination of HIF-1α with proteasome inhibited” value [4] is on record?
A: no affect

Q: For `CCC[C@@H](C=O)NC(=O)[C@H](CC(C)C)NC(=O)[C@H](CC(C)C)NC(=O)OCc1ccccc1` [LLnV, N-carbobenzoxy-Leu-Leu-norvalinal] (Cbz-Leu-Leu-[Nva]-aldehyde), which “Deubiquitination of HIF-1α in vitro” value [5] is on record?
A: did not affect
